From EP2253617A1, “Halogenated compounds as pesticides” (Bayer CropScience AG, priority 2009, dated 2010)
Where two headings read alike, the source gives them in different places.

Columns and labels:
[1] = physchem
[2] = system: Phaedon cochleariae; test: Phaedon test (PHAECO spray treatment); format: in vivo; details: 500 g/ha, sprayed Chinese cabbage leaf discs, larvae, after 7 days; 100 % = all beetle larvae killed
Source text: Phaedon-Test (PHAECO Spritzbehandlung)
(§1) • Lösungsmittel: 78,0 GewichtsteileAceton 1,5 Gewichtsteile Dimethylformamid • Emulgator: 0,5 Gewichtsteile Alkylarylpolyglykolether
(§2) Zur Herstellung einer zweckmäßigen Wirkstoffzubereitung vermischt man 1 Gewichtsteil Wirkstoff mit den angegebenen Mengen Lösungsmittel und Emulgator und verdünnt das Konzentrat mit emulgatorhaltigem Wasser auf die gewünschte Konzentration.
Chinakohlblattscheiben (Brassica pekinensis) werden mit einer Wirkstoffzubereitung der gewünschten Konzentration gespritzt und nach dem Abtrocknen mit Larven des Meerrettichblattkäfers (Phaedon cochleariae) besetzt.
Nach 7 Tagen wird die Wirkung in % bestimmt. Dabei bedeutet 100 %, dass alle Käferlarven abgetötet wurden; 0 % bedeutet, dass keine Käferlarven abgetötet wurden.

[3] = system: Spodoptera frugiperda; test: Spodoptera frugiperda test (SPODFR spray treatment); format: in vivo; details: 500 g/ha, sprayed maize leaf discs, caterpillars, after 7 days; 100 % = all caterpillars killed
Source text: Spodoptera frugiperda-Test (SPODFR Spritzbehandlung)
as §1, §2
Maisblattscheiben (Zea mays) werden mit einer Wirkstoffzubereitung der gewünschten Konzentration gespritzt und nach dem Abtrocknen mit Raupen des Heerwurms (Spodoptera frugiperda) besetzt.Nach 7 Tagen wird die Wirkung in % bestimmt. Dabei bedeutet 100 %, dass alle Raupen abgetötet wurden; 0 % bedeutet, dass keine Raupe abgetötet wurde.

[4] = physchem; remark: listed apart in the source
[5] = system: Tetranychus urticae; format: in vivo; details: foliar, 500 g/ha, 144 h
Source text: Tetranychus-Test, OP-resistent (TETRUR Spritzbehandlung)
as §1, §2
Bohnenblattscheiben (Phaseolus vulgaris), die von allen Stadien der Gemeinen Spinnmilbe (Tetranychus urticae) befallen sind, werden mit einer Wirkstoffzubereitung der gewünschten Konzentration gespritzt.
Nach 6 Tagen wird die Wirkung in % bestimmt. Dabei bedeutet 100 %, dass alle Spinnmilben abgetötet wurden; 0 % bedeutet, dass keine Spinnmilben abgetötet wurden.

| SMILES | chromatographic logP [1] | Wirkung [2] [%] | Wirkung [3] [%] | chromatographic logP [4] | Wirkung [5] [%] |
| --- | --- | --- | --- | --- | --- |
| Cn1nc(C(F)(F)C(F)(F)F)c(C(F)(F)F)c1C(=O)Nc1ccc(Cl)c(C(=O)Nc2ccncc2)c1 [Ia-1] | 1.99 | 100 | – | – | – |
| Cn1nc(C(F)(F)C(F)(F)F)c(C(F)(F)F)c1C(=O)Nc1ccc(Cl)c(C(=O)Nc2cnccc2Cl)c1 [Ia-4] | 3.33 | 100 | 80 | – | – |
| O=C(Nc1ccc(Cl)c(C(=O)Nc2ccc(F)cc2)c1)c1csc(C(F)(F)F)n1 [Ia-5] | – | – | – | 3.35 | – |
| Cn1nc(C(F)(F)C(F)(F)F)c(C(F)(F)F)c1C(=O)Nc1ccc(Cl)c(C(=O)Nc2ccnc(Cl)c2)c1 [Ia-6] | 3.37 | 100 | 100 | – | 80 |
| Cc1nc(C(F)(F)F)ccc1C(=O)Nc1ccc(Cl)c(C(=O)Nc2cccc(Cl)c2)c1 [Ia-9] | – | 80 | – | 3.6 | – |
| COc1ccc(NC(=O)c2cc(NC(=O)c3c(C(F)(F)F)c(C(F)(F)C(F)(F)F)nn3C)ccc2Cl)cc1 [Ia-12] | 3.68 | – | 100 | – | – |
| Cn1nc(C(F)(F)C(F)(F)F)c(C(F)(F)F)c1C(=O)Nc1ccc(Cl)c(C(=O)Nc2cccnc2Cl)c1 [Ia-13] | 3.73 | 100 | 100 | – | 90 |
| O=C(Nc1ccc(Cl)c(C(=O)Nc2cccc(Cl)c2)c1)c1csc(C(F)(F)F)n1 [Ia-14] | – | – | – | 3.82 | – |
| Cn1nc(C(F)(F)C(F)(F)F)c(C(F)(F)F)c1C(=O)Nc1ccc(Cl)c(C(=O)Nc2cccc(Cl)n2)c1 [Ia-19] | 3.94 | 100 | 100 | – | 100 |
| Cc1cc(F)ccc1NC(=O)c1cc(NC(=O)c2c(C(F)(F)F)c(C(F)(F)C(F)(F)F)nn2C)ccc1Cl [Ia-23] | 4.05 | 100 | 100 | – | 90 |
| Cn1nc(C(F)(F)C(F)(F)F)c(C(F)(F)F)c1C(=O)Nc1ccc(Cl)c(C(=O)Nc2ccc(Cl)cn2)c1 [Ia-27] | 4.17 | 100 | 100 | – | – |
| Cc1c(NC(=O)c2cc(NC(=O)c3c(C(F)(F)F)c(C(F)(F)C(F)(F)F)nn3C)ccc2Cl)ccc(F)c1Cl [Ia-33] | 4.34 | 100 | 100 | – | 90 |
| Cn1nc(C(F)(F)C(F)(F)F)c(Br)c1C(=O)Nc1ccc(Cl)c(C(=O)Nc2ccc(Cl)cn2)c1 [Ia-35] | – | 100 | 80 | – | – |
| Cn1nc(C(F)(F)C(F)(F)F)c(C(F)(F)F)c1C(=O)Nc1ccc(Cl)c(C(=O)Nc2cccc(C(F)(F)F)c2)c1 [Ia-37] | 4.4 | 100 | 100 | – | – |
| Cn1nc(C(F)(F)C(F)(F)F)c(C(F)(F)F)c1C(=O)Nc1ccc(Cl)c(C(=O)Nc2ccc(F)c(C(F)(F)F)c2)c1 [Ia-39] | 4.51 | 100 | 100 | – | – |
| Cc1cc(NC(=O)c2cc(NC(=O)c3c(C(F)(F)F)c(C(F)(F)C(F)(F)F)nn3C)ccc2Cl)c(Cl)cc1F [Ia-41] | 4.64 | 100 | – | – | – |
| Cn1nc(C(F)(F)C(F)(F)F)c(C(F)(F)F)c1C(=O)Nc1ccc(Cl)c(C(=O)Nc2ccc(Cl)c(Cl)c2)c1 [Ia-42, N-{4-Chlor-3-[(3,4-dichlorphenyl)carbamoyl]phenyl}-1-methyl-3-(pentafluorethyl)-4-(trifluormethyl)-1H-pyrazol-5-carboxamid] | 4.65 | 100 | 100 | – | – |
| Cn1nc(C(F)(F)C(F)(F)F)c(C(F)(F)F)c1C(=O)Nc1ccc(Cl)c(C(=O)Nc2cc(Cl)c(Cl)c(Cl)c2)c1 [Ia-44] | 5.15 | 100 | 100 | – | – |
| Cn1nc(C(F)(F)C(F)(F)F)c(C(F)(F)F)c1C(=O)Nc1ccnc(C(=O)Nc2ccc(F)cc2)c1 [Ib-1, N-[2-(4-fluor-phenylcarbamoyl)pyrid-4-yl]-1-methyl-3-(pentafluorethyl)-4-(trifluormethyl)-1H-pyrazol-5-carbonsäureamid] | – | – | – | 4.3 | – |
